Like-named read-outs stand apart in the source and are kept apart here.
Columns and labels:
[1] = system: human poly-IgG (h-poly-IgG); assay: Microtiter plate chromatography of resins, human poly-IgG (bound, yield); type: binding
Procedure: (§1) Resins were assessed in packed mode by microtiter plate chromatography. For each column, approximately 30 μl of resin were transferred to a 384-well filter plate and sealed with appropriate top frits.
(§2) Columns were equilibrated with 6.7 column volumes (cv) of phosphate buffered saline (0.15 M NaCl, 20 mM sodium phosphate, pH 7.3; PBS) prior to injection. Either 3.3 cv of whole IgGs dissolved at 0.75 mg ml^−1, Fab or Fc fragments dissolved at 0.25 mg ml^−1 (all three in PBS) or host cell proteins (HCP) were injected onto columns. Antibody fragments of Bevacizumab (Fab and Fc) were prepared by cleavage of whole IgG with papain protease (3) according to the protocol of the manufacturer. […] Volumes transferred were spun through columns at 50 g for 1-2 min. During injection of samples, acceleration was reduced to 10 g and centrifugation time increased to 5-10 min. Effluent fractions were collected in 384-well plates and concentrations of protein analyzed by Bradford assay. Protein masses mi, mft and me (see below) were calculated as the product of fraction volume and measured protein concentration.
(§3) The fraction of ‘bound’ protein was calculated as the difference between the total mass of protein injected mi and the mass of protein detected in the flowthrough mft, divided by the total mass of protein injected.
(§4) The ‘yield’ of protein was calculated as the mass of protein eluted me, divided by the mass of protein injected mi.
(§5) the fraction of ‘bound’ protein and the ‘yield’ of protein were calculated for each resin based on data for whole IgG-antibodies. In the case of Bevacizumab fragments and host cell proteins, only the fraction of ‘bound’ protein is given. Selectivity of resins was calculated from data for Bevacizumab Whole IgG and host cell proteins. Due to limited experimental precision, selectivity was truncated beyond values of 10.

host cell proteins (HCP) = assay: Microtiter plate chromatography of resins, host cell proteins (bound); type: binding, CHO; conditions: host cell proteins
Procedure: Flowthrough from protein A chromatography (referred to as host cell proteins) was derived from the supernatant of antibody-producing CHO cell culture in serum-free medium.
as §1, §2, §3, §5

Tocilizumab = assay: Microtiter plate chromatography of resins, Tocilizumab (bound, yield); type: binding, humanized
Procedure: as §1, §2, §3, §4, §5

Bevacizumab [2] = assay: Microtiter plate chromatography of resins, Bevacizumab whole IgG (bound, yield, selectivity); type: binding, humanized
Procedure: as §1, §2, §3, §4
(§6) The ‘selectivity’ of resins was calculated as the fraction of bound antibody BAb, divided by the fraction of bound host cell proteins BHCP.
as §5

Bevacizumab [3] = biological target: T1, Bevacizumab (Homo sapiens, UniProt P01857); assay: as above; type: binding, humanized; conditions: for Bevacizumab IgG Bound (%): fraction of whole IgG Bevacizumab bound to resin; for Bevacizumab IgG Yield (%): mass of whole IgG Bevacizumab eluted / mass injected
T1 construct: fused on or other part: humanised anti-VEGF-A VH domain N-terminal of the gamma-1 constant region (engineered, no UniProt entry)
Procedure: as §1, §2, §3, §4, §6, §5

Palivizumab = assay: Microtiter plate chromatography of resins, Palivizumab (bound, yield); type: binding, humanized
Procedure: as §1, §2, §3, §4, §5

[4] = fraction of bound Bevacizumab whole IgG / fraction of bound HCP, truncated beyond values of 10

Row | SMILES | h-poly-IgG Bound (%) [1] [%] | h-poly-IgG Yield (%) [1] [%] | HCP Bound (%) (host cell proteins (HCP)) | Tocilizumab Bound (%) (Tocilizumab) | Tocilizumab Yield (%) (Tocilizumab) | Selectivity (Bevacizumab [2]) | Bevacizumab IgG Bound (%) (Bevacizumab [3]) | Bevacizumab IgG Yield (%) (Bevacizumab [3]) | Palivizumab Bound (%) (Palivizumab) | Palivizumab Yield (%) (Palivizumab) | selectivity index (Bevacizumab [2]; fraction of bound Bevacizumab whole IgG divided by fraction of bound HCP, truncated beyond 10) | Selectivity (Bevacizumab [2]; [4])
1 | COc1ccc(NC(=O)c2cc(C(F)(F)F)n(C)n2)cc1C(=O)NCCCN [Ligand L34, 2-Methoxy-5-[1-methyl-5-(trifluoromethyl)pyrazol-3-yl]carboxamidobenzoic acid N-(3-aminopropyl)amide] | 78 | 61 | 39 | 85 | 80 | 2.6 | 100 | 89 | 73 | 72 |  | 
2 | COc1ccc(NC(=O)c2nccc3ccccc23)cc1C(=O)NCCCN [Ligand L35, 5-(1-Isoquinolinyl)carboxamido-2-methoxybenzoic acid N-(3-aminopropyl)amide] | 95 | 76 | 51 | 100 | 92 | 2.0 | 100 | 96 | 100 | 95 |  | 
3 | COc1ccc(NC(=O)c2n[nH]c3ccccc23)cc1C(=O)NCCCN [Ligand L36, 5-(Indazol-3-yl)carboxamido-2-methoxybenzoic acid N-(3-aminopropyl)amide] | 95 | 77 | 54 | 100 | 95 | 1.9 | 100 | 100 | 100 | 100 |  | 
4 | COc1ccc(NC(=O)c2cn3ccsc3n2)cc1C(=O)NCCCN [Ligand L37, 5-(Imidazo[2,1-b]thiazol-6-yl)carboxamido-2-methoxybenzoic acid N-(3-aminopropyl)amide] | 94 | 70 | 29 | 99 | 95 | 3.4 | 100 | 92 | 92 | 87 | 3.4 | 
5 | CCn1nc(C(=O)Nc2ccc(OC)c(C(=O)NCCCN)c2)c2ccccc21 [Ligand L38, 5-(1-Ethylindazol-3-ylcarboxamido)-2-methoxybenzoic acid (3-amino-1-propyl)amide] | 100 | 99 | 45 | 100 | 99 | 2.2 | 100 | 100 | 91 | 79 |  | 
6 | COc1ccc(C(=O)Nc2nn(C)c3ccccc23)cc1C(=O)NCCCN [Ligand L39, 5-[N-(1-Methylindazol-3-yl)carbamoyl]-2-methoxybenzoic acid (3-amino-1-propyl)amide] | 100 | 100 | 35 | 100 | 100 | 2.9 | 100 | 100 | 100 | 100 |  | 
7 | COc1ccc(NC(=O)c2nc3cccnc3[nH]2)cc1C(=O)NCCCN [Ligand L41, 5-(3H-Imidazo[4,5-b]pyridin-2-ylcarboxamido)-2-methoxybenzoic acid (3-amino-1-propyl)amide] | 85 | 85 | 9 | 91 | 91 |  | 100 | 100 | 74 | 71 |  | 10.0
8 | COc1ccc(NC(=O)c2cc(-c3csc(C)n3)on2)cc1C(=O)NCCCN [Ligand L42, 2-Methoxy-5-[5-(2-methylthiazol-4-yl)isoxazol-3-ylcarboxamido]benzoic acid (3-amino-1-propyl)amide] | 100 | 100 | 32 | 100 | 99 | 3.1 | 100 | 92 | 99 | 99 |  | 
9 | COc1ccc(NC(=O)c2nnc3ccccn23)cc1C(=O)NCCCN [Ligand L43, 2-Methoxy-5-([1,2,4]triazolo[4,3-a]pyridin-3-ylcarboxamido)benzoic acid (3-amino-1-propyl)amide] | 90 | 90 | 13 | 88 | 88 | 8.0 | 100 | 90 | 61 | 43 |  | 
10 | COc1ccc(NC(=O)c2nn(C)c3ncccc23)cc1C(=O)NCCCN [Ligand L44, 2-Methoxy-5-(1-methylpyrazolo[3,4-b]pyridin-3-ylcarboxamido)benzoic acid (3-amino-1-propyl)amide] | 73 | 73 | 4 | 78 | 78 |  | 100 | 100 | 56 | 56 |  | 10.0
11 | COc1ccc(NC(=O)c2cc(-c3ccco3)on2)cc1C(=O)NCCCN [Ligand L45, 5-[5-(2-Furyl)isoxazol-3-ylcarboxamido]-2-methoxybenzoic acid (3-amino-1-propyl)amide] | 100 | 100 | 44 | 100 | 100 | 2.3 | 100 | 82 | 100 | 100 |  | 
12 | COc1ccc(NC(=O)c2cc3ccccn3n2)cc1C(=O)NCCCN [Ligand L46, 2-Methoxy-5-(pyrazolo[1,5-a]pyridin-2-ylcarboxamido)benzoic acid (3-amino-1-propyl)amide] | 93 | 93 | 20 | 100 | 97 | 5.0 | 100 | 82 | 85 | 85 |  | 
13 | COc1ccc(NC(=O)c2nc3ccccc3[nH]2)cc1C(=O)NCCCN [Ligand L47, 5-(1H-Benzimidazol-2-ylcarboxamido)-2-methoxybenzoic acid (3-amino-1-propyl)amide] | 71 | 65 | 35 | 100 | 100 | 2.9 | 100 | 97 | 85 | 85 |  | 
14 | COc1ccc(NC(=O)c2cn3ncccc3n2)cc1C(=O)NCCCN [Ligand L48, 5-(Imidazo[1,2-b]pyridazin-2-ylcarboxamido)-2-methoxybenzoic acid (3-amino-1-propyl)amide] | 84 | 84 | 8 | 87 | 87 |  | 100 | 97 | 58 | 54 |  | 10.0

Source: patent publication US20130131321A1, “LIGANDS FOR ANTIBODY AND Fc-FUSION PROTEIN PURIFICATION BY AFFINITY CHROMATOGRAPHY” (GRAFFINITY PHARMACEUTICALS GMBH, priority 2010, published 2013)
